Measured values from patent US20260242419A1, “A CYCLIC PEPTIDE FOR TRAPPING INTERLEUKIN-1 BETA” (Merck Sharp & Dohme LLC, priority 2023, published 2026).
pIC50: −log10 of the molar value. Like-named read-outs stand apart in the source and are kept apart here. Starred links: 1 amine or outer side, 2 acyl side, 3 side chain; linkers in the order of their positions; H or OH if unused. Non-standard residues stand in square brackets, D forms with d. Residues, ends and D or L forms follow the SMILES beside them. *: point of attachment. dPro(4R-(4-pyridylmethyl)) = O=C(O)[C@H]1C[C@@H](Cc2ccncc2)CN1; X17 = CN(C)C(=O)c1ccc(-c2ccc(C[C@H](N[*:1])C(=O)[*:2])cc2)cc1; dPro(3S-(4-Br-benzyl)) = O=C(O)[C@@H]1NCC[C@@H]1Cc1ccc(Br)cc1; Trp(βS-Me,4-F) = C[C@@H](c1c[nH]c2cccc(F)c12)[C@H](N)C(=O)O; Bip(4'-COOH) = N[C@@H](Cc1ccc(-c2ccc(C(=O)O)cc2)cc1)C(=O)O; Ala(1-bicyclo(1.1.1)pentyl) = N[C@@H](CC12CC(C1)C2)C(=O)O; dPro(4R-Bzl(4-F)) = O=C(O)[C@H]1C[C@@H](Cc2ccc(F)cc2)CN1; Ala(morpholin-4-yl) = N[C@@H](CN1CCOCC1)C(=O)O; Ala(pyrimidin-5-yl) = N[C@@H](Cc1cncnc1)C(=O)O; Phe(4-COOH) = N[C@@H](Cc1ccc(C(=O)O)cc1)C(=O)O; Pro(cis-4-F) = O=C(O)[C@@H]1C[C@H](F)CN1; Ala(4-THP) = N[C@@H](CC1CCOCC1)C(=O)O; AEF = NCCOc1ccc(C[C@H](N)C(=O)O)cc1; cisHyp = O=C(O)[C@@H]1C[C@H](O)CN1; d(αMeD) = C[C@@](N)(CC(=O)O)C(=O)O; 4Pal = N[C@@H](Cc1ccncc1)C(=O)O; aThr = C[C@H](O)[C@H](N)C(=O)O; αMeD = C[C@](N)(CC(=O)O)C(=O)O; d(αMeS) = C[C@@](N)(CO)C(=O)O; αMeK = C[C@](N)(CCCCN)C(=O)O; Dab = NCC[C@H](N)C(=O)O; Aib = CC(C)(N)C(=O)O; X2 = O=C(c1ncccn1)*; Sar = CNCC(=O)O

Target: T1, IL-1β (Homo sapiens, UniProt P01584)
T1 construct: purchased BioLegend 579404
T1 sequence (P01584 117-269): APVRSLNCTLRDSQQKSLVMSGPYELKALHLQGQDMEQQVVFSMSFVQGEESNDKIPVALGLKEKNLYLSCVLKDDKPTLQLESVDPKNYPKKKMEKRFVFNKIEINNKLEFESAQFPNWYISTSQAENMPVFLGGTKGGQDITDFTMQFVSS
Assay: IL-6 assay in MRC5 cells: inhibition of IL-1β induced IL-6 secretion (AlphaLISA)
Format: cell-based
Conditions: inhibition of IL-1β induced IL-6 secretion in MRC5 cells, read-out: MRC5 IC50
Summary of the method: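 Compound was pre-incubated 1 h at ambient temperature with recombinant human IL-1β at 2λ EC80 before adding human lung fibroblast MRC5 cells (3000/well) in EMEM with 0.025% BSA. After overnight culture at 37 °C, 5% CO2, secreted IL-6 in conditioned medium was measured by AlphaLISA; IC50 from 4-parameter logistic fits.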

SMILES	pIC50	pIC50 (compound pre-incubated 1 hour with recombinant human IL-1β)
C[C@@H](c1c[nH]c2cccc(F)c12)[C@@H]1NC(=O)[C@@H]2C[C@H](F)CN2C(=O)CNC(=O)[C@H](Cc2ccc(C(=O)O)cc2)NC(=O)[C@H](Cc2ccncc2)NC(=O)[C@H](Cc2ccc(-c3ccc(C(=O)O)cc3)cc2)NC(=O)[C@H]2C[C@@H](Cc3ccc(F)cc3)CN2C(=O)CNC(=O)[C@H](CCN)NC(=O)[C@H](CCC(N)=O)NC(=O)[C@H](CN2CCOCC2)NC(=O)[C@@](C)(CC(=O)O)NC(=O)[C@H](Cc2c[nH]c3ccccc23)NC(=O)[C@H](CO)NC(=O)C(C)(C)NC1=O [Example 319] (cyclo([Bip(4'-COOH)][4Pal][Phe(4-COOH)]G[Pro(cis-4-F)][Trp(βS-Me,4-F)][Aib]SW[d(αMeD)][Ala(morpholin-4-yl)]Q[Dab]G[dPro(4R-Bzl(4-F))]))	10.77	
C[C@@H](c1c[nH]c2cccc(F)c12)[C@@H]1NC(=O)[C@@H]2C[C@H](F)CN2C(=O)CNC(=O)[C@H](Cc2ccc(C(=O)O)cc2)NC(=O)[C@H](Cc2ccncc2)NC(=O)[C@H](Cc2ccc(-c3ccc(C(=O)O)cc3)cc2)NC(=O)[C@H]2C[C@@H](Cc3ccncc3)CN2C(=O)CN(C)C(=O)[C@H](CCN)NC(=O)[C@H](CCC(N)=O)NC(=O)[C@H](CC2CCOCC2)NC(=O)[C@](C)(CC(=O)O)NC(=O)[C@H](Cc2c[nH]c3ccccc23)NC(=O)[C@H](CO)NC(=O)C(C)(C)NC1=O [Example 208] (cyclo([Bip(4'-COOH)][4Pal][Phe(4-COOH)]G[Pro(cis-4-F)][Trp(βS-Me,4-F)][Aib]SW[αMeD][Ala(4-THP)]Q[Dab][Sar][dPro(4R-(4-pyridylmethyl))]))	10.82	
C[C@@H](c1c[nH]c2cccc(F)c12)[C@@H]1NC(=O)[C@@H]2C[C@H](F)CN2C(=O)CNC(=O)[C@H](Cc2ccc(C(=O)O)cc2)NC(=O)[C@H](CC23CC(C2)C3)NC(=O)[C@H](Cc2ccc(-c3ccc(C(=O)O)cc3)cc2)NC(=O)[C@H]2C[C@@H](Cc3ccc(F)cc3)CN2C(=O)CNC(=O)[C@H](CCN)NC(=O)[C@H](CCC(N)=O)NC(=O)[C@H](CC2CCOCC2)NC(=O)[C@](C)(CCCCN)NC(=O)[C@H](Cc2c[nH]c3ccccc23)NC(=O)[C@H](CO)NC(=O)C(C)(C)NC1=O [Example 146] (cyclo([Bip(4'-COOH)][Ala(1-bicyclo(1.1.1)pentyl)][Phe(4-COOH)]G[Pro(cis-4-F)][Trp(βS-Me,4-F)][Aib]SW[αMeK][Ala(4-THP)]Q[Dab]G[dPro(4R-Bzl(4-F))]))	10.47	
C[C@@H](c1c[nH]c2cccc(F)c12)[C@@H]1NC(=O)[C@@H]2C[C@H](F)CN2C(=O)CNC(=O)[C@H](Cc2ccc(C(=O)O)cc2)NC(=O)[C@H](Cc2ccncc2)NC(=O)[C@H](Cc2ccc(-c3ccc(C(=O)O)cc3)cc2)NC(=O)[C@H]2[C@@H](Cc3ccc(Br)cc3)CCN2C(=O)CNC(=O)[C@H](CCN)NC(=O)[C@H](CCC(N)=O)NC(=O)[C@H](Cc2cncnc2)NC(=O)C(C)(C)NC(=O)[C@H](Cc2c[nH]c3ccccc23)NC(=O)[C@H](CCC(=O)O)NC(=O)C(C)(C)NC1=O [Example 51] (cyclo([4Pal][Phe(4-COOH)]G[Pro(cis-4-F)][Trp(βS-Me,4-F)][Aib]EW[Aib][Ala(pyrimidin-5-yl)]Q[Dab]G[dPro(3S-(4-Br-benzyl))][Bip(4'-COOH)]))	10.85	
C[C@@H](c1c[nH]c2cccc(F)c12)[C@@H]1NC(=O)[C@@H]2C[C@H](F)CN2C(=O)CNC(=O)[C@H](Cc2ccc(C(=O)O)cc2)NC(=O)[C@H](Cc2ccncc2)NC(=O)[C@H](Cc2ccc(OCCNC(=O)c3ncccn3)cc2)NC(=O)[C@H]2C[C@@H](Cc3ccncc3)CN2C(=O)CNC(=O)[C@H](CCN)NC(=O)[C@H](CCC(N)=O)NC(=O)[C@H](Cc2cncnc2)NC(=O)C(C)(C)NC(=O)[C@H](Cc2c[nH]c3ccccc23)NC(=O)[C@H](CO)NC(=O)C(C)(C)NC1=O [Example 304] (cyclo([AEF](X2)[4Pal][Phe(4-COOH)]G[Pro(cis-4-F)][Trp(βS-Me,4-F)][Aib]SW[Aib][Ala(pyrimidin-5-yl)]Q[Dab]G[dPro(4R-(4-pyridylmethyl))]))	10.85	
C[C@@H](c1c[nH]c2cccc(F)c12)[C@@H]1NC(=O)[C@@H]2C[C@H](F)CN2C(=O)CNC(=O)[C@H](Cc2ccc(C(=O)O)cc2)NC(=O)[C@H](Cc2ccncc2)NC(=O)[C@H](Cc2ccc(-c3ccc(C(=O)N(C)C)cc3)cc2)NC(=O)[C@H]2C[C@@H](Cc3ccncc3)CN2C(=O)CNC(=O)[C@H](CCN)NC(=O)[C@H](CCC(N)=O)NC(=O)[C@H](CC2CCOCC2)NC(=O)[C@@](C)(CC(=O)O)NC(=O)[C@H](Cc2c[nH]c3ccccc23)NC(=O)[C@H](CO)NC(=O)C(C)(C)NC1=O [Example 295] (cyclo([X17][4Pal][Phe(4-COOH)]G[Pro(cis-4-F)][Trp(βS-Me,4-F)][Aib]SW[d(αMeD)][Ala(4-THP)]Q[Dab]G[dPro(4R-(4-pyridylmethyl))]))		10.92
C[C@H](O)[C@@H]1NC(=O)C(C)(C)NC(=O)[C@H]([C@@H](C)c2c[nH]c3cccc(F)c23)NC(=O)[C@@H]2C[C@H](F)CN2C(=O)CNC(=O)[C@H](Cc2ccc(C(=O)O)cc2)NC(=O)[C@H](Cc2ccncc2)NC(=O)[C@H](Cc2ccc(-c3ccc(C(=O)O)cc3)cc2)NC(=O)[C@H]2C[C@@H](Cc3ccncc3)CN2C(=O)CNC(=O)[C@H](CCN)NC(=O)[C@H](CCC(N)=O)NC(=O)[C@H]([C@H](C)O)NC(=O)[C@@](C)(CO)NC(=O)[C@H](Cc2c[nH]c3ccccc23)NC1=O [Example 352] (cyclo([Bip(4'-COOH)][4Pal][Phe(4-COOH)]G[Pro(cis-4-F)][Trp(βS-Me,4-F)][Aib][aThr]W[d(αMeS)][aThr]Q[Dab]G[dPro(4R-(4-pyridylmethyl))]))	10.64	
C[C@@H](c1c[nH]c2cccc(F)c12)[C@@H]1NC(=O)[C@@H]2C[C@H](F)CN2C(=O)CNC(=O)[C@H](Cc2ccc(C(=O)O)cc2)NC(=O)[C@H](Cc2ccncc2)NC(=O)[C@H](Cc2ccc(-c3ccc(C(=O)O)cc3)cc2)NC(=O)[C@H]2C[C@@H](Cc3ccncc3)CN2C(=O)CN(C)C(=O)[C@H](CCN)NC(=O)[C@H](CCC(N)=O)NC(=O)[C@H](Cc2cncnc2)NC(=O)[C@@](C)(CO)NC(=O)[C@H](Cc2c[nH]c3ccccc23)NC(=O)[C@H](CO)NC(=O)C(C)(C)NC1=O [Example 206] (cyclo([Bip(4'-COOH)][4Pal][Phe(4-COOH)]G[Pro(cis-4-F)][Trp(βS-Me,4-F)][Aib]SW[d(αMeS)][Ala(pyrimidin-5-yl)]Q[Dab][Sar][dPro(4R-(4-pyridylmethyl))]))	10.66	
C[C@@H](c1c[nH]c2cccc(F)c12)[C@@H]1NC(=O)[C@@H]2C[C@H](O)CN2C(=O)CNC(=O)[C@H](Cc2ccc(C(=O)O)cc2)NC(=O)[C@H](Cc2ccncc2)NC(=O)[C@H](Cc2ccc(-c3ccc(C(=O)O)cc3)cc2)NC(=O)[C@H]2C[C@@H](Cc3ccncc3)CN2C(=O)CNC(=O)[C@H](CCN)NC(=O)[C@H](CCC(N)=O)NC(=O)[C@H](CC2CCOCC2)NC(=O)[C@@](C)(CO)NC(=O)[C@H](Cc2c[nH]c3ccccc23)NC(=O)[C@H](CO)NC(=O)C(C)(C)NC1=O [Example 213] (cyclo([Bip(4'-COOH)][4Pal][Phe(4-COOH)]G[cisHyp][Trp(βS-Me,4-F)][Aib]SW[d(αMeS)][Ala(4-THP)]Q[Dab]G[dPro(4R-(4-pyridylmethyl))]))	10.68	
